Test results from patent publication US11136339B2, “Dihydroartemisinin diploid derivative, pharmaceutical composition thereof, and application” (priority 2017, dated 2021).
≈ marks a conversion by molar mass, not a printed value.

Tests used:
[1] = system: HL-60: human promyelocytic leukemia cells; assay: Human cancer cell killing test by MTT method, HL-60; assay type: cell-based; settings: HL-60, 96 h, read-out: IC50 HL-60
Protocol: (§1) Well-growing tumor cells were collected, a RPM11640 medium containing 10% fetal bovine serum was used to prepare […] cell suspension, the tumor cells were inoculated in a 96-well culture plate, and 100 μL of the cell suspension (containing 1000 tumor cells) was added into each well, cultured in 5% CO2 incubator at 37° C. for 24 h, and then added with drugs (see Table 2). Blank control and solvent control were set in the experiment, and tested samples were set with four concentrations, with three parallel wells for each concentration, and cultured in 5% CO2 incubator at 37° C. for 4 days. A culture solution was discarded, and 100 μL of MTT solution (0.4 mg/mL, RPM11640 preparation) was added into each well and incubated at 37° C. for 4 h. A supernatant was discarded, 150 μL of […] was added into each well to dissolve particles, and after slight shaking, an OD value was measured at a detection wavelength of 540 nm and a reference wavelength of 450 nm with a 550 microplate reader.
(§2) Result calculation: a dose-response curve can be obtained by plotting different concentrations of drugs and inhibition rates to cells, from which the median inhibitory concentration (IC50) can be obtained, and results are shown in Table 2. […] This is probably because that the artesunate is released slowly. […]

[2] = system: A549: human lung adenocarcinoma cells; assay: Human cancer cell killing test by MTT method, A549; assay type: cell-based; settings: A549, 96 h, read-out: IC50 A549
Protocol: as §1, §2

[3] = in vivo; settings: female, BALB/c, mouse, iv, 10 mg/kg
Protocol: BALB/c mice (female, five weeks, 20 g to 22 g) were divided into four groups (three mice in each group). […] A PBS solution of drugs was injected through tail vein.
Blood samples were respectively taken at predetermined times (0.25 h, 0.5 h, 1 h, 3 h, 6 h, 12 h, 24 h and 48 h) and centrifuged at 3,000 rpm for 10 min to obtain plasma.

[4] = Solubility in water; assay type: physicochemical; settings: 20 °C
Protocol: 0.1 g of product B was dissolved in 20 mL of dichloromethane, added with 10 ml of TFA and 1 mL of triisopropylsilane, and reacted at 25° C. for 2 h. A reaction solution was diluted to 50 mL with dichloromethane, washed three times with saturated NaHCO3, and dried with Na2SO4, and a solvent was evaporated by rotation to obtain crude products. The crude product was purified by silica gel column (a mobile phase was dichloromethane: methanol/65:25) to obtain product of dihydroartemisinin dithiodiglycolic acid dimer carboxyl betaine. […] MS: [M+H]^+ 1039.27.

[5] = system: human erythrocyte infected by plasmodium strain (3D7); assay: Plasmodium killing test, SYBR Green I fluorescence method; assay type: cell-based; settings: 3D7, Erythrocyte, 48 h, read-out: median inhibitory concentration IC50 for killing plasmodium
Protocol: Method: a plasmodium killing effect of a sample measured by a SYBR Green I fluorescence method
Material: human erythrocyte infected by plasmodium strain (3D7) (0.5% parasitemia), RPMI 1640 complete medium, and carbon dioxide incubator (5% CO2, 5% O2, equilibrium N2, and 37° C.)
The medium was blank. The erythrocytes were incubated in a carbon dioxide incubator for 48 h (37° C.).

[6] = system: MCF-7: human breast cancer cells; assay: Human cancer cell killing test by MTT method, MCF-7; assay type: cell-based; settings: MCF7, 96 h, read-out: IC50 MCF-7
Protocol: as §1, §2

[7] = system: Hep G2: human liver cancer cells; assay: Human cancer cell killing test by MTT method, Hep G2; assay type: cell-based; settings: HepG2, 96 h, read-out: IC50 Hep G2
Protocol: as §1, §2

[8] = system: HeLa:; assay: Human cancer cell killing test by MTT method, HeLa; assay type: cell-based; settings: 96 h, read-out: IC50 HeLa
Protocol: as §1, §2

[9] = In-vivo toxicity test of a mouse, oral administration; settings: ICR mouse, male
From the text: Animal: ICR mouse, male, 18 g to 22 g, purchased from Vital River Laboratory Animal Technology Co., Ltd.

SMILES	IC50 [1] [µg/mL]	IC50 [2] [µg/mL]	AUC(0-t) [3] [ng·h/mL]	Cmax [3] [ng/mL]	MRT last [3] [h]	clearance [3] [mL/min/kg]	half-life [3] [h]	solubility [4] [µg/mL]	IC50 [5] [nM]	IC50 [6] [µg/mL]	IC50 [7] [µg/mL]	IC50 [8] [µg/mL]	Oral median lethal dose [9] [mg/kg weight]
C[C@H]1[C@H](OC(=O)CCC(=O)O)O[C@@H]2O[C@@]3(C)CC[C@H]4[C@H](C)CC[C@@H]1[C@@]24OO3 [Artesunate]	130 (≈ 338 µM)	110 (≈ 286 µM)	80700	23400	2.71	3.73	1.52	360 (≈ 936 µM)	10.3	150 (≈ 390 µM)	100 (≈ 260 µM)	130 (≈ 338 µM)	–
C[C@H]1[C@@H](O)O[C@@H]2O[C@@]3(C)CC[C@H]4[C@H](C)CC[C@@H]1[C@@]24OO3 [Dihydroartemisinin]	–	–	–	–	–	–	–	–	–	–	–	–	810
